# Calls of active or inactive are those of the source. No cut-off for these calls is given here.
# Key:
# SR = assay: Growth inhibition of human SR cells incubated for 48 hrs by sulforhodamine B assay; type: functional
# HOP-92 = assay: Growth inhibition of human HOP92 cells incubated for 48 hrs by sulforhodamine B assay; type: functional; details: HOP-92, 48 h
# [1] = biological target: T1, Dihydrofolate reductase (Homo sapiens) (UniProt P00374); assay: Inhibition of human dihydrofolate reductase assessed as association constant by UV-Vis spectra based Benesi Hilebrand equation analysis
# T1 sequence (whole entry): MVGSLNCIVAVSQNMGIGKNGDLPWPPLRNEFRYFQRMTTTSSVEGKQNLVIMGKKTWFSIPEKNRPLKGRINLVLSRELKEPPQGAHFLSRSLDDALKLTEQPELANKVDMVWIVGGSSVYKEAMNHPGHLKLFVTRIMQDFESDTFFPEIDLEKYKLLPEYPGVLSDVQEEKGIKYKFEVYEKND
# ACHN = assay: Growth inhibition of human ACHN cells incubated for 48 hrs by sulforhodamine B assay; type: functional
# MCF7 = assay: Growth inhibition of human MCF7 cells at 10^-5 M incubated for 48 hrs by sulforhodamine B assay relative to control; type: functional; details: MCF7, 48 h, read-out: GI
# A498 = assay: Growth inhibition of human A498 cells incubated for 48 hrs by sulforhodamine B assay; type: functional; details: A498, 48 h
# LOX IMVI = assay: Growth inhibition of human LOXIMVI cells incubated for 48 hrs by sulforhodamine B assay; type: functional
# SK-MEL-28 = assay: Growth inhibition of human SK-MEL-28 cells incubated for 48 hrs by sulforhodamine B assay; type: functional; details: SK-MEL-28, 48 h
# SK-MEL-2 = assay: Growth inhibition of human SK-MEL-2 cells incubated for 48 hrs by sulforhodamine B assay; type: functional; details: SK-MEL-2, 48 h
# HCT-15 = assay: Growth inhibition of human HCT15 cells incubated for 48 hrs by sulforhodamine B assay; type: functional; details: HCT-15, 48 h
# SF-539 = assay: Growth inhibition of human SF539 cells incubated for 48 hrs by sulforhodamine B assay; type: functional; details: SF-539, 48 h
# MOLT-4 = assay: Growth inhibition of human MOLT4 cells incubated for 48 hrs by sulforhodamine B assay; type: functional; details: MOLT-4, 48 h
# PC-3 = assay: Growth inhibition of human PC3 cells incubated for 48 hrs by sulforhodamine B assay; type: functional; details: PC-3, 48 h
# NCI-H460 = assay: Growth inhibition of human NCI-H460 cells incubated for 48 hrs by sulforhodamine B assay; type: functional; details: NCI-H460, 48 h
# SF-268 = assay: Growth inhibition of human SF268 cells incubated for 48 hrs by sulforhodamine B assay; type: functional; details: SF-268, 48 h
# OVCAR-5 = assay: Growth inhibition of human OVCAR5 cells at 10^-5 M incubated for 48 hrs by sulforhodamine B assay relative to control; type: functional; details: OVCAR-5, 48 h, read-out: GI
# HCT-116 = assay: Growth inhibition of human HCT116 cells incubated for 48 hrs by sulforhodamine B assay; type: functional; details: HCT-116, 48 h
# U-251 = assay: Growth inhibition of human U251 cells incubated for 48 hrs by sulforhodamine B assay; type: functional; details: U-251, 48 h
# [2] = biological target: T1, Dihydrofolate reductase (Homo sapiens); assay: Binding affinity to human dihydrofolate reductase at 5 uM assessed as decrease in absorption band by UV-visible spectroscopic analysis
# SF-295 = assay: Growth inhibition of human SF295 cells incubated for 48 hrs by sulforhodamine B assay; type: functional; details: SF-295, 48 h
# DU-145 = assay: Growth inhibition of human DU145 cells incubated for 48 hrs by sulforhodamine B assay; type: functional; details: DU-145, 48 h
# CCRF-CEM = assay: Growth inhibition of human CCRF-CEM cells at 10^-5 M incubated for 48 hrs by sulforhodamine B assay relative to control; type: functional; details: read-out: GI
# MDA-MB-231 = assay: Growth inhibition of human MDA-MB-231/ATCC cells incubated for 48 hrs by sulforhodamine B assay; type: functional; details: MDA-MB-231, 48 h
# IGROV-1 = assay: Growth inhibition of human IGROV1 cells at 10^-5 M incubated for 48 hrs by sulforhodamine B assay relative to control; type: functional; details: IGROV-1, 48 h, read-out: GI
# M14 = assay: Growth inhibition of human M14 cells incubated for 48 hrs by sulforhodamine B assay; type: functional; details: M14, 48 h
# SNB-19 = assay: Growth inhibition of human SNB19 cells incubated for 48 hrs by sulforhodamine B assay; type: functional; details: SNB-19, 48 h
# C6 = assay: Induction of morphological changes in rat C6 cells assessed as increase in total length of processes measured after 24 hrs by inverted microscopy analysis relative to control; type: functional
# HT-29 = assay: Growth inhibition of human HT-29 cells incubated for 48 hrs by sulforhodamine B assay; type: functional; details: HT-29, 48 h
# Hs-578T = assay: Growth inhibition of human Hs578T cells incubated for 48 hrs by sulforhodamine B assay; type: functional
# CAKI-1 = assay: Growth inhibition of human Caki1 cells incubated for 48 hrs by sulforhodamine B assay; type: functional; details: CAKI-1, 48 h
# [3] = read-out: LC50 (the source's name)
# [4] = read-out: pLC50 (the source's name) (converted)
structure (smiles),measurement,setting,value
O=c1c2ccccc2n(CC2CO2)c2ccccc12 (racemic),GI50,SR; read-out: GI50,50 nM
same,CC50,SR; [3],> 100000 nM
same,GI50,SR; read-out: pGI50 (converted),50.1 nM
same,CC50,SR; [4],> 100000 nM
same,TGI,SR; read-out: pTGI (converted),1860 nM
same,GI50,HOP-92,324 nM
same,CC50,HOP-92; [4],> 100000 nM
same,TGI,HOP-92; read-out: pTGI (converted),3890 nM
same,Ka,[1],1.4 ×10⁴ /M
same,GI50,ACHN; read-out: GI50,90 nM
same,CC50,ACHN; [3],790 nM
same,GI50,ACHN; read-out: pGI50 (converted),95.5 nM
same,CC50,ACHN; [4],794 nM
same,TGI,ACHN; read-out: pTGI (converted),282 nM
same,inhibition of growth at 10 µM,MCF7,100%
same,GI50,A498,1740 nM
same,CC50,A498; [4],7240 nM
same,TGI,A498; read-out: pTGI (converted),3550 nM
same,GI50,LOX IMVI; read-out: GI50,120 nM
same,CC50,LOX IMVI; [3],5120 nM
same,GI50,LOX IMVI; read-out: pGI50 (converted),126 nM
same,CC50,LOX IMVI; [4],5130 nM
same,TGI,LOX IMVI; read-out: pTGI (converted),646 nM
same,GI50,SK-MEL-28,407 nM
same,CC50,SK-MEL-28; [4],11000 nM
same,TGI,SK-MEL-28; read-out: pTGI (converted),1950 nM
same,GI50,SK-MEL-2,234 nM
same,CC50,SK-MEL-2; [4],2040 nM
same,TGI,SK-MEL-2; read-out: pTGI (converted),513 nM
same,GI50,HCT-15,295 nM
same,CC50,HCT-15; [4],> 100000 nM
same,TGI,HCT-15; read-out: pTGI (converted),4570 nM
same,GI50,SF-539,347 nM
same,CC50,SF-539; [4],> 100000 nM
same,TGI,SF-539; read-out: pTGI (converted),1780 nM
same,GI50,MOLT-4; read-out: GI50,40 nM
same,CC50,MOLT-4; [3],> 100000 nM
same,GI50,MOLT-4; read-out: pGI50 (converted),41.7 nM
same,CC50,MOLT-4; [4],> 100000 nM
same,TGI,MOLT-4; read-out: pTGI (converted),316 nM
same,GI50,PC-3,331 nM
same,CC50,PC-3; [4],> 100000 nM
same,TGI,PC-3; read-out: pTGI (converted),4790 nM
same,GI50,NCI-H460,380 nM
same,CC50,NCI-H460; [4],> 100000 nM
same,TGI,NCI-H460; read-out: pTGI (converted),1660 nM
same,GI50,SF-268; read-out: GI50,160 nM
same,CC50,SF-268; [3],> 100000 nM
same,GI50,SF-268; read-out: pGI50 (converted),170 nM
same,CC50,SF-268; [4],> 100000 nM
same,TGI,SF-268; read-out: pTGI (converted),1120 nM
same,inhibition of growth at 10 µM,OVCAR-5,100%
same,GI50,HCT-116,126 nM
same,CC50,HCT-116; [4],> 100000 nM
same,TGI,HCT-116; read-out: pTGI (converted),10000 nM
same,GI50,U-251,282 nM
same,CC50,U-251; [4],> 100000 nM
same,TGI,U-251; read-out: pTGI (converted),1350 nM
same,Activity,[2],Active
same,GI50,SF-295,603 nM
same,CC50,SF-295; [4],> 100000 nM
same,TGI,SF-295; read-out: pTGI (converted),4270 nM
same,GI50,DU-145,347 nM
same,CC50,DU-145; [4],> 100000 nM
same,TGI,DU-145; read-out: pTGI (converted),1480 nM
same,inhibition of growth at 10 µM,CCRF-CEM,93%
same,GI50,MDA-MB-231,631 nM
same,CC50,MDA-MB-231; [4],> 100000 nM
same,TGI,MDA-MB-231; read-out: pTGI (converted),3310 nM
same,inhibition of growth at 10 µM,IGROV-1,100%
same,GI50,M14,331 nM
same,CC50,M14; [4],6170 nM
same,TGI,M14; read-out: pTGI (converted),1510 nM
same,GI50,SNB-19,490 nM
same,CC50,SNB-19; [4],> 100000 nM
same,TGI,SNB-19; read-out: pTGI (converted),4370 nM
same,Activity,C6,16 - 18%
same,GI50,HT-29,316 nM
same,CC50,HT-29; [4],23400 nM
same,TGI,HT-29; read-out: pTGI (converted),871 nM
same,GI50,Hs-578T,575 nM
same,CC50,Hs-578T; [4],> 100000 nM
same,TGI,Hs-578T; read-out: pTGI (converted),3890 nM
same,GI50,CAKI-1,174 nM
same,CC50,CAKI-1; [4],> 100000 nM
same,TGI,CAKI-1; read-out: pTGI (converted),692 nM

# Source: ChEMBL document CHEMBL4359904, “Structural tuning of acridones for developing anticancer agents targeting dihydrofolate reductase” (Bioorg Med Chem Lett, 2019)
